Consider ten compounds from patent US9061054B2, “ErbB-2 receptor targeting peptide” (The Curators of The University of Missouri, priority 2002, dated 2015).

The conditions of data set [1]: in vivo; cited from earlier work.
The conditions of data set [2]: cited from earlier work.
For data set [3] the following is noted: oral radioactive lomustine, about 30 mg/m^2 to 100 mg/m^2; cited from earlier work.
In data set [4] the test system is multiple myeloma. The conditions noted are these: oral administration; cited from earlier work.
For data set [5] the following is noted: cited from earlier work; for plasma protein binding: in vivo.
Data set [6] relates to BSA, bovine asialofetuin, and human IgG. Briefly: Immunoblot analysis, control proteins. It counts as binding. As to conditions: 6.25-50 ng on nitrocellulose, biotinylated peptide. An excerpt:
Binding activity of p6.1 peptide.

The target in data set [7] is T1, ErbB-1 receptor from human carcinoma A431 cells (Homo sapiens, UniProt P00533).
T1 construct: ErbB-1 receptor from human carcinoma A431 cells; purchased Sigma #E-2645; host or cells: A431 human carcinoma cells (endogenous receptor, isolated by the vendor)
Briefly: ELISA, immobilized ErbB-1. As to conditions: 100 ng protein per well; biotinylated peptide in 1:2 serial dilutions; OD 405 nm. It counts as binding.

Data set [8] has as its target T2, soluble ErbB-2-ECD (Homo sapiens, UniProt P04626).
T2 construct: Purification and characterization of the recombinant extracellular domain of ErbB-2; made in house
Briefly: Fluorescence quenching titration of ErbB-2-ECD. It counts as binding. As to conditions: saturation conditions; excited at 300 nm, monitored at 350 nm. The protocol: Fluorescence assay. The fluorescence titration studies were carved out using a SLM Aminco spectrofluorometer interfaced to a DEL 433/L PC running SLM Aminco 8100 series 2 software. The titrations were performed at 25° C. with varying amounts of peptide added to a fixed ErbB-2-ECD concentration (200-600 nM) in 2 ml of phosphate buffered saline (pH=7.4). Each measurement was collected for 5-20 sec after 1-2 min pre-equilibration. The excitation shutter remained closed during pre-equilibration of the sample and was opened only during data acquisition in order to minimize photobleaching of the sample. The fluorescence measurements were corrected for dilutions and photobleaching of ErbB-2-ECD. Values reported are an average of three independent measurements. […]
Fluorescence quenching studies were performed in order to evaluate the equilibrium dissociation constant of p6.1 to the soluble Erb-2-ECD. Intrinsic tryptophan fluorescence of the protein was monitored as a function of peptide concentration. Since p6.1 peptide contains a tyrosine residue, samples were excited at 300 nm and monitored at 350 nm to minimize the influence of tyrosine emission on tryptophan fluorescence. […] Theoretical curves were generated for the percentage of fluorescence quenching as a function of total peptide concentration (FIG. 2C).

For data set [9], the target named is T3, ErbB-2-ECD (Homo sapiens, UniProt P04626). The conditions noted are these: 6.25-50 ng protein on nitrocellulose; biotinylated peptide, 2 hrs RT.
Procedure: Immunoblot analysis of binding activity of the p6.1 peptide. […] After washing three times with PBS, the membrane was incubated with 100 μg biotinylated peptide for 2 hrs at RT.
Binding activity of p6.1 peptide. The binding specificity of synthetic p6.1 peptide to recombinant ErbB-2-ECD was examined by immunoblot and ELISA procedures. Immunoblot analysis was performed to compare the binding activity of the p6.1 peptide to ErbB-2-ECD and several other non-ErbB-2 related proteins. Purified recombinant ErbB-2-ECD as well as BSA, bovine asialofetuin, and human IgG were spotted on a nitrocellulose membrane at various amounts and exposed to the biotinylated p6.1 peptide.
In data set [10] the target is T3, ErbB-2-ECD. Briefly: ELISA, immobilized ErbB-2-ECD.
Procedure: ELISA. […] Wells were subsequently incubated with biotinylated peptide added to the wells by serial dilutions (1:2) at RT for 2 hr. […] The pNPP reaction was stopped with 3M NaOH. Optical density was measured at 405 nm in a microplate reader. All assays were performed at least three times in triplicate wells. Values are reported as an average of absorbence ±SD.
For data set [11], the target named is T3, ErbB-2-ECD. Briefly: Affinity selection of phage display library. The data set is classed as binding. Set-up: Purification and characterization of the recombinant extracellular domain of ErbB-2; made in house. The conditions noted are these: 100 clones sequenced after four rounds of affinity selection; F3-6 library. The method, then:
Affinity Selection. […] Biotinylated antigen was incubated with streptavidin coated plates for 2 hours at 4° C. In first and second round of selection 10 μg of biotinylated antigen per plate was added, in third round amount of antigen was decreased to 1 μg, and for fourth round of selection 0.1 μg of antigen was used. Unoccupied biotin-binding sites were blocked with 0.1 mM biotin. Phage was incubated with antigen for 4 hrs at RT. Plates were washed 10 times with TPBS to remove unbound phage. Bound phage was eluted with elution buffer (0.1 M HCl, pH is adjusted to 2.2 with glycine, 1 mg/ml BSA, 0.1 mg/ml phenol red) at RT during 10 min. […] After each round, except the last, the eluate of the bound phage was propagated and used as input for the next round. Individual clones were characterized by DNA sequencing after the fourth round of selection.
A random 6-amino acid peptide bacteriophage display library was affinity selected against the ErbB-2-ECD to identify novel peptide-ligands.

Data set [12] relates to DU-145 human prostate carcinoma cells. Briefly: Direct cell binding assay, DU-145. As to conditions: fixed, non-permeabilized cells; biotinylated peptide 100 μM; antibody 1:100. It counts as cell-based. The method, then:
(§1) Cell Binding Assay. […] When cultures reached approximately 60-70% confluence, the cells were briefly washed with PBS, fixed with 4% formaldehyde solution in PBS for 30 min but not permeabilized, and preblocked for 1 hr with 2% bovine serum albumin (BSA) solution in PBS at 37° C. The cultivation chambers were removed and cells were incubated for 2 hr with solution of Neu (9G6) anti-ErbB-2 mouse monoclonal antibody (Santa Cruz Biotechnology) diluted 1:100 and biotinylated peptide (100 μM) in 2% solution BSA in PBS. The slides were washed three times with PBS followed by 1 hr incubation with Lissamine Rhodamineconjugated donkey anti-mouse IgG (Jackson ImmunoResearch Laboratories) and streptavidin-AMCA-S conjugate (Molecular Probes) in 2% BSA in PBS. After additional washes with PBS, the slides were mounted and analyzed by fluorescent microscopy using Rhodamine and UVA filter sets.
(§2) Direct Cell Binding Assay. The ability of the p6.1 to recognize cultured human cancer cells expressing native conformation of the ErbB-2 was examined.

The subject of data set [13] is MDA-MB-435 human breast carcinoma cells. Briefly: Direct cell binding assay, MDA-MB-435. The data set is classed as cell-based. The conditions noted are these: fixed, non-permeabilized cells; biotinylated peptide 100 μM; antibody 1:100. The protocol:
as §1, §2

In data set [14] the test system is T-24 human bladder carcinoma cells. Briefly: Direct cell binding assay, T-24 (negative control). The data set is classed as cell-based. As to conditions: biotinylated peptide 100 μM, antibody 1:100. The method, then: Cell Binding Assay. DU-145 (human prostate adenocarcinoma), MDA-MB-435 (human breast carcinoma), and T-24 (human bladder carcinoma) cells were grown directly on the same microscope slide using a 4 well Lab-Tek II chamber slide system (Nalge Nunc). When cultures reached approximately 60-70% confluence, the cells were briefly washed with PBS, fixed with 4% formaldehyde solution in PBS for 30 min but not permeabilized, and preblocked for 1 hr with 2% bovine serum albumin (BSA) solution in PBS at 37° C. The cultivation chambers were removed and cells were incubated for 2 hr with solution of Neu (9G6) anti-ErbB-2 mouse monoclonal antibody (Santa Cruz Biotechnology) diluted 1:100 and biotinylated peptide (100 μM) in 2% solution BSA in PBS. The slides were washed three times with PBS followed by 1 hr incubation with Lissamine Rhodamineconjugated donkey anti-mouse IgG (Jackson ImmunoResearch Laboratories) and streptavidin-AMCA-S conjugate (Molecular Probes) in 2% BSA in PBS. After additional washes with PBS, the slides were mounted and analyzed by fluorescent microscopy using Rhodamine and UVA filter sets.
Direct Cell Binding Assay. The ability of the p6.1 to recognize cultured human cancer cells expressing native conformation of the ErbB-2 was examined. High levels of ErbB-2 expression on DU-145 human prostate carcinoma cells has been reported previously (Zhau et al., 1992). […]

Numbered stars: 1 amine (or outer) side, 2 acyl side, 3 side chain; on linkers, the order of the positions; unused ones are H or OH. Bridge positions count the residues as written; N and C are the ends. Square brackets hold non-standard residues; d marks the D form. Ends that are not written are not given here. Peptide text beside a SMILES is read from it. I, II: the chains in the order shown. Actinocin(9to1) = Cc1c2oc3c(C)ccc(C(=O)[*:1])c3nc-2c(C(=O)[*:2])c(N)c1=O; NMeV = CN[C@H](C(=O)O)C(C)C; Sar = CNCC(=O)O

`Cc1c2oc3c(C)ccc(C(=O)N[C@@H]4C(=O)N[C@H](C(C)C)C(=O)N5CCC[C@H]5C(=O)N(C)CC(=O)N(C)[C@@H](C(C)C)C(=O)O[C@@H]4C)c3nc-2c(C(=O)N[C@@H]2C(=O)N[C@H](C(C)C)C(=O)N3CCC[C@H]3C(=O)N(C)CC(=O)N(C)[C@@H](C(C)C)C(=O)O[C@@H]2C)c(N)c1=O` [Actinomycin D] (I: T[dV]P[Sar][NMeV] / II: T[dV]P[Sar][NMeV]; ester I:1-I:C, II:1-II:C; linker I:N-II:N via Actinocin(9to1)): the “passage of the blood-brain barrier” value in data set [1] is “does not pass”.

Take `O=NN(CCCl)C(=O)NCCCl` [Carmustine, 1,3 bis(2-chloroethyl)-1-nitrosourea]: the “solubility in water” value in data set [2] is “poorly soluble”.

With `O=NN(CCCl)C(=O)NC1CCCCC1` [Lomustine, 1-(2-chloro-ethyl)-3-cyclohexyl-1 nitrosourea], in data set [3], the “radioactivity excreted as degradation products within 24 hours” value was “about half”.

In the case of `N[C@@H](Cc1ccc(N(CCCl)CCCl)cc1)C(=O)O` [Melphalan], the “patients with multiple myeloma showing a favorable response” value in data set [4] is recorded as “one third to one half”.

On to `CC[C@]1(O)C[C@@H]2CN(CCc3c([nH]c4ccccc34)[C@@](C(=O)OC)(c3cc4c(cc3OC)N(C)[C@H]3[C@@](O)(C(=O)OC)[C@H](OC(C)=O)[C@]5(CC)C=CCN6CC[C@]43[C@@H]65)C2)C1` [vinblastine], for which, in [5], the plasma protein binding entry is listed as “bind to plasma proteins” and the “absorption after oral administration” value is “Unpredictable absorption”.

Take `CC[C@]1(O)C[C@H]2CN(CCc3c([nH]c4ccccc34)[C@@](C(=O)OC)(c3cc4c(cc3OC)N(C=O)[C@H]3[C@@](O)(C(=O)OC)[C@H](OC(C)=O)[C@]5(CC)C=CCN6CC[C@]43[C@@H]65)C2)C1` [vincristine]: in data set [5], the plasma protein binding entry is “bind to plasma proteins” and the “absorption after oral administration” value was “Unpredictable absorption”.

KCCYSL [p6.1, chemically synthesized]: in data set [6], the “reaction with control proteins (immunoblot)” value is reported as “did not react”. Also, the “binding activity to ErbB-1 protein (ELISA)” value in [7] is listed as “significant dose dependent binding activity”. In data set [8], the “maximum quenching of tryptophanyl fluorescence” value worked out at 20%. In addition, the “binding to immobilized ErbB-2-ECD (immunoblot)” value in [9] was “bound only ErbB-2”. Further, in [10] (100 ng protein per well, biotinylated peptide in 1:2 serial dilutions, OD 405 nm), the “binding activity to ErbB-2-ECD (ELISA)” value was “significant dose dependent binding activity”. Moreover, in [10] (experimental ELISA data), the “competition with Neu (9G6) antibody for the same binding site on the extracellular domain” value was “do not compete”. For the same compound, the “% Of Clones” value in data set [11] is listed as 75%.

For WYAWML [p6.2], the “% Of Clones” value in [11] stood at 8%.

Take WYSWLL [p6.3]: the “% Of Clones” value in [11] is listed as 10%.

Regarding “biotinylated p6.1: biotinylated analog of the p6.1 peptide KCCYSL, chemically synthesized (cysteine pairing not given here; also: biotinylated, place not given here)”, in data set [12], the “binding to DU-145 cells (fluorescent microscopy)” value is “bound”. Further, in [13], the “binding to MDA-MB-435 cells (fluorescent microscopy)” value is “bound”. The “binding to T-24 cells (fluorescent microscopy)” value in data set [14] is on record as “Neither the Neu (9G6) anti-ErbB-2 antibody, nor the biotinylated p6.1 bound”.
